In patent US20250115598A1 (Anaxis Pharma Pty Ltd, priority 2021, published 2025) one finds Kd data, which are given here for nine compounds.

The target of assay [1] is human RIPK1 (Homo sapiens (Human), UniProt Q13546). Briefly: KINOMEscan binding assay, human RIPK1. The settings on record: Table 21. As to the method: (§1) Binding affinity of the test compounds for human MLKL (full length), mouse MLKL (full length), human RIPK1 and human RIPK3 was determined using the KINOMEscan™ technology developed by DiscoverX (USA; http://www.discoverx.com). The assay was conducted according to manufacturer instructions.
Sequence of human RIPK1 (Q13546 whole entry): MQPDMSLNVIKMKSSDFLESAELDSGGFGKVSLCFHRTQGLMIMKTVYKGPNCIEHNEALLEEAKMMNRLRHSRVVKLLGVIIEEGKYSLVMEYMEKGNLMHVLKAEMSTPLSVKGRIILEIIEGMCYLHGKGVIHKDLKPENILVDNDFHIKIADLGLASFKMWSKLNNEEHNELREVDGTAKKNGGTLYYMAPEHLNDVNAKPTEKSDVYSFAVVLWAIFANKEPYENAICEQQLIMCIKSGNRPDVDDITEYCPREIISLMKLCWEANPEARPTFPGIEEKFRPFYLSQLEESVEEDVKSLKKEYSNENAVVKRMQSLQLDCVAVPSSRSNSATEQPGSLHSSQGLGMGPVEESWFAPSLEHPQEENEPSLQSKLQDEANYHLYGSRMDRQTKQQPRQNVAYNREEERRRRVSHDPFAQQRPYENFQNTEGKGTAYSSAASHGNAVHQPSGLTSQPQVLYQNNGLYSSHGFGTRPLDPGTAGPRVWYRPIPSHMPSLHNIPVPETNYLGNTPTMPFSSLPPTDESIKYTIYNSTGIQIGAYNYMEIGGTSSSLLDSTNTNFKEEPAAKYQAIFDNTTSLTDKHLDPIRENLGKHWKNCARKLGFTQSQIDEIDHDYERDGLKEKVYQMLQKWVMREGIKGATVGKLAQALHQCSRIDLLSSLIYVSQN
(§2) Kinase assays. For most assays, kinase-tagged T7 phage strains were grown in parallel in 24-well blocks in an E. coli host derived from the BL21 strain. E. coli were grown to log-phase and infected with T7 phage from a frozen stock (multiplicity of infection=0.4) and incubated with shaking at 32° C. until lysis (90-150 minutes). The lysates were centrifuged (6,000×g) and filtered (0.2 μm) to remove cell debris. The remaining kinases were produced in HEK-293 cells and subsequently tagged with DNA for qPCR detection. […] The liganded beads were blocked with excess biotin and washed with blocking buffer (SeaBlock (Pierce), 1% BSA, 0.05% Tween 20, 1 mM DTT) to remove unbound ligand and to reduce non-specific phage binding. […] All reactions were performed in polypropylene 384-well plates in a final volume of 20 μL. […] The kinase concentration in the eluates was measured by qPCR.
(§3) An 11-point 3-fold serial dilution of each test compound was prepared in 100% DMSO at 100× final test concentration and subsequently diluted to 1× in the assay (final DMSO concentration=1%). Most Kos were determined using a compound top concentration=30,000 nM.
(§4) KD for each test compound was calculated with a standard dose-response curve using the Hill equation (equation (1)): […]
(§5) The Hill Slope was set to −1.
(§6) Curves were fitted using a non-linear least square fit with the Levenberg-Marquardt algorithm.

The target in assay [2] is human RIPK3 (Homo sapiens (Human), UniProt Q9Y572). In words: KINOMEscan binding assay, human RIPK3. The settings on record: Table 21. The protocol:
as §1, §2, §3, §4, §5, §6

Each structure is given as a SMILES string.

Sequence of human RIPK3 (Q9Y572 whole entry): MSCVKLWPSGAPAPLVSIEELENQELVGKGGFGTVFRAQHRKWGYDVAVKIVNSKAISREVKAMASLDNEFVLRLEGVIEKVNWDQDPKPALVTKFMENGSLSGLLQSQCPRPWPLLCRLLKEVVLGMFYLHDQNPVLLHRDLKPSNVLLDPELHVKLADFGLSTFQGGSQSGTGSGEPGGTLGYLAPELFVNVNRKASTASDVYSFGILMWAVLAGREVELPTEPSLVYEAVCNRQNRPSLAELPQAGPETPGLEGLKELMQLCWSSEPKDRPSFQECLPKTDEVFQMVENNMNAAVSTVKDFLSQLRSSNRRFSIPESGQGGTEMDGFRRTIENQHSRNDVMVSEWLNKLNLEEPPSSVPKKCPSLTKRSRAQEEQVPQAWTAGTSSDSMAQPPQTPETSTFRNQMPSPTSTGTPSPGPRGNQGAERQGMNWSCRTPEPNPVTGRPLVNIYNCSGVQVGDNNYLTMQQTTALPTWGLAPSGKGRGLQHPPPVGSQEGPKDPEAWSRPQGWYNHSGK

Take `CC(C)n1nc(-c2ccc(NS(=O)(=O)C(F)F)c(O[C@@H](C)c3ccc(F)cc3)c2)c2c(N)ncc(-c3cnn(C4CCOCC4)c3)c21` [Compound 51, (S)-N-(4-(4-amino-1-isopropyl-7-(1-(tetrahydro-2H-pyran-4-yl)-1H-pyrazol-4-yl)-1H-pyrazolo[4,3-c]pyridin-3-yl)-2-(1-(4-fluorophenyl)ethoxy)phenyl)-1,1-difluoromethane-sulfonamide]: the Kd in assay [1] and in assay [2] was over 10 µM in each case.
Take `CC(C)n1nc(-c2ccc(NS(=O)(=O)C(F)F)c(O[C@@H](C)c3ccc(F)cc3)c2)c2c(N)ncc(-c3cnn(C)c3)c21` [Compound 52, (S)-N-(4-(4-amino-1-isopropyl-7-(1-methyl-1H-pyrazol-4-yl)-1H-pyrazolo[4,3-c]pyridin-3-yl)-2-(1-(4-fluorophenyl)ethoxy)phenyl)-1,1-difluoromethane-sulfonamide]: the Kd in assay [1] and in assay [2] was over 10 µM throughout.
Regarding `C[C@H](Oc1cc(-c2nn(C)c3c(-c4ccnc(C(F)F)c4)cnc(N)c23)ccc1NS(=O)(=O)C(F)F)c1ccc(F)cc1` [Compound 57, (S)-N-(4-(4-amino-7-(2-(difluoromethyl)pyridin-4-yl)-1-methyl-1H-pyrazolo[4,3-c]pyridin-3-yl)-2-(1-(4-fluorophenyl)ethoxy)phenyl)-1,1-difluoromethanesulfonamide], the Kd in assay [1] is over 10 µM; in assay [2], 0.1 to 10 µM.
The matching figures for `C[C@H](Oc1cc(-c2nn(C)c3c(-c4cnn(C5CCN(CC(F)(F)F)CC5)c4)cnc(N)c23)ccc1NS(=O)(=O)C(F)F)c1ccc(F)cc1` [Compound 61, (S)-N-(4-(4-amino-1-methyl-7-(1-(1-(2,2,2-trifluoroethyl)piperidin-4-yl)-1H-pyrazol-4-yl)-1H-pyrazolo[4,3-c]pyridin-3-yl)-2-(1-(4-fluorophenyl)ethoxy)phenyl)-1,1-difluoromethanesulfonamide]: over 10 µM and over 10 µM.
On the same counts, the results for `CCS(=O)(=O)Nc1ccc(-c2ncn3ccnc(N)c23)cc1OCc1ccc(F)cc1` [Compound 63, N-(4-(8-Aminoimidazo[1,5-a]pyrazin-1-yl)-2-((4-fluorophenyl)methoxy)phenyl) ethane-1-sulfonamide] are over 10 µM and over 10 µM.
On the same counts, the results for `CCS(=O)(=O)Nc1ccc(-c2cnn3ccnc(N)c23)cc1OCc1ccc(F)cc1` [Compound 64, N-(4-(4-Aminopyrazolo[1,5-a]pyrazin-3-yl)-2-((4-fluorophenyl)methoxy)phenyl)ethane-1-sulfonamide] are over 10 µM and over 10 µM.
For the compound `Nc1n[nH]c2ccnc(-c3ccc(NS(=O)(=O)CC(F)(F)F)c(OCc4ccc(F)cc4)c3)c12` [Compound 65, N-(4-(3-amino-1H-pyrazolo[4,3-c]pyridin-4-yl)-2-((4-fluorophenyl)methoxy)phenyl)-2,2,2-trifluoroethane-1-sulfonamide], the Kd in assay [1] and in assay [2] was over 10 µM each time.
For `Nc1n[nH]c2ccnc(-c3ccc(NS(=O)(=O)C(F)F)c(OCc4ccc(F)cc4)c3)c12` [Compound 68, N-(4-(3-amino-1H-pyrazolo[4,3-c]pyridin-4-yl)-2-((4-fluorophenyl)methoxy)phenyl)-1,1-difluoromethanesulfonamide], the Kd in assay [1] and in assay [2] was over 10 µM each time.
Take `C[C@H](Oc1cc(-c2nn(C)c3c(-c4cnn(C5CCCNCC5)c4)cnc(N)c23)ccc1NS(=O)(=O)C(F)F)c1ccc(F)cc1` (stereo partly drawn) [Compound 74, N-(4-(4-amino-7-(1-(azepan-4-yl)-1H-pyrazol-4-yl)-1-methyl-1H-pyrazolo[4,3-c]pyridin-3-yl)-2-((S)-1-(4-fluorophenyl)ethoxy)phenyl)-1,1-difluoromethane-sulfonamide]: the Kd in assay [1] and in assay [2] was over 10 µM throughout.
